Columns and labels:
[1] = Example 1: fasting blood glucose level; assay type: in vivo, mouse (C57BL/6J male, 60% HFD DIO); settings: semaglutide 10 nmol/kg s.c. Q3D
Description: (§1) After 5-week-old C57BL/6J male mice were acclimatized for 1 week, the weight of each mouse was weighed, and the mice were randomly divided into a control group and a model group by taking the weight as a main index, where 12 mice in the control group were fed with common feed (CD), and the mice in the remaining model group were fed with 60% high-fat feed (60% HFD) for 10-12 weeks to construct a DIO obesity model, with the average body weight being not less than 40 g. The mice fed with 60% HFD were grabbed and acclimatized with a solvent for 3 days, where the acclimatization with a solvent was performed by oral gavage of 0.5% CMC-Na, twice daily.
(§2) The food intake, the body weight, the body fat ratio, and the insulin level of the mice were respectively measured, followed by fasting blood glucose level, and the mice were randomly grouped according to Table 3 by taking the body weight as an index, and the remaining ungrouped mice were euthanized. After grouping, each group of mice was administered according to Table 3, the day of administration was defined as DO, and the administration volume of each drug was determined based on the results obtained by the calculation of 5 μL/g× mouse body weight (g).
For the combined administration group, the total administration volume was the sum of the administration volumes of two single drugs, and the administration sequence and the administration time were kept consistent at each administration. The mice were continuously fed with high-fat feed during the administration period until the administration was finished. […]
After 20 days of administration, fasting blood glucose level results were measured for each group of animals and are shown in Table 8 below and FIG. 11.

[2] = Example 1: oral glucose tolerance test (OGTT), blood glucose; assay type: in vivo, mouse (C57BL/6J male, 60% HFD DIO); settings: for OGTT blood glucose level: HTD1801 200 mpk, empagliflozin 10 mpk (reduced after week 2), semaglutide 10 nmol/kg s.c. Q3D
Description: as §1, §2
For the combined administration group, the total administration volume was the sum of the administration volumes of two single drugs, and the administration sequence and the administration time were kept consistent at each administration. The mice were continuously fed with high-fat feed during the administration period until the administration was finished. During administration, 2 food intakes were measured per week (difference in feed weights at an interval of 24 h was measured); each group of mice was weighed once daily; postprandial blood glucose levels were measured weekly; blood was collected from the tail tip on day 6 and day 20, respectively, so as to measure fasting blood glucose levels once (blood was collected after fasting from 8:00 am to […]); on day 25 of administration, the body fat ratio and the lean mass of each group of mice were measured by MRI (the measurement period was kept consistent with that before grouping); after 4 weeks of administration intervention (day 28), each group of mice was fasted for 6 h and subjected to OGTT (0 min, 15 min, 30 min, 60 min, 90 min, 120 min) to detect their blood glucose levels, and meanwhile subjected to blood sampling via submaxillary vein (0 min, 15 min, 30 min, about 30 μL of blood sampled each time), and then the blood plasma was separated for detecting the insulin level by ELISA, where the separated blood plasma was more than 10 μL; the next day (D29) at the end of administration was set as the test endpoint, and the mice were fasted for 6 h in the morning and subjected to fasting blood glucose level measurement; subsequently, the mice were euthanized with CO2, blood was collected from the heart of each mouse for analysis, and each group of mice was dissected; the liver and subcutaneous, epididymal and mesenteric fat was collected, photographed and weighed, respectively.

[3] = day 6, HTD1801 300 mpk, empagliflozin 15 mpk gavage QD
[4] = day 20, HTD1801 200 mpk, empagliflozin 10 mpk (reduced after week 2)
[5] = day 28, 120 min (head printed "12 0min")

For OC[C@H]1O[C@@H](c2ccc(Cl)c(Cc3ccc(O[C@H]4CCOC4)cc3)c2)[C@H](O)[C@@H](O)[C@@H]1O [Empagliflozin, empagliflozin], the “Mean fasting blood glucose level” value [1, 3] was 7.8 mmol/L, the “Mean fasting blood glucose level” value [1, 4] was 7.9 mmol/L and the “OGTT blood glucose level” value ([2]; day 28, 0 min) was 10.97 mmol/L. For the same molecule, the “OGTT blood glucose level” value ([2]; day 28, 15 min) was 19.60 mmol/L, the “OGTT blood glucose level” value ([2]; day 28, 30 min) was 18.90 mmol/L and the “OGTT blood glucose level” value ([2]; day 28, 60 min) was 18.18 mmol/L. For the same molecule, the “OGTT blood glucose level” value ([2]; day 28, 90 min) was 14.54 mmol/L, the “OGTT blood glucose level” value [2, 5] was 15.48 mmol/L and the “total blood glucose level in OGTT (in words)” value ([2]; day 28, relative to model control group G2) was “comparable”.

In the case of COc1ccc2cc3[n+](cc2c1OC)CCc1cc2c(cc1-3)OCO2.C[C@H](CCC(=O)[O-])[C@H]1CC[C@H]2[C@@H]3[C@@H](O)C[C@@H]4C[C@H](O)CC[C@]4(C)[C@H]3CC[C@]12C [HTD1801, berberine ursodeoxycholate], the “Mean fasting blood glucose level” value [1, 3] is reported as 7.9 mmol/L, the “Mean fasting blood glucose level” value [1, 4] is reported as 8.4 mmol/L and the “OGTT blood glucose level” value ([2]; day 28, 0 min) is reported as 10.65 mmol/L. The “OGTT blood glucose level” value ([2]; day 28, 15 min) was 19.88 mmol/L, the “OGTT blood glucose level” value ([2]; day 28, 30 min) was 20.04 mmol/L and the “OGTT blood glucose level” value ([2]; day 28, 60 min) was 23.48 mmol/L. For the same molecule, the “OGTT blood glucose level” value ([2]; day 28, 90 min) was 19.88 mmol/L and the “OGTT blood glucose level” value [2, 5] was 22.22 mmol/L.

Reference: patent US20260373165A1, “PHARMACEUTICAL COMBINATIONS AND COMPOSITIONS, AND METHODS OF USE THEREOF” (SHENZHEN HIGHTIDE BIOPHARMACEUTICAL LTD., priority 2022, published 2026)
